# Legend:
# [1] = test system: TNF-α secretion, peripheral blood mononuclear cells (PBMCs); assay: Suppression of TNF-α secretion in LPS-treated PBMCs (ELISA); format: cell-based; details: PBMC, 100 ng/ml LPS, 24 hours, read-out: TNF-α, % inhibition degree
# Experimental: (§1) Peripheral blood mononuclear cells (PBMCs) isolated from whole blood were distributed in a 96-well plate. TNF-α was aliquoted at a density of 1×10^5 cells/well, IFN-α was aliquoted at a density of 2×10^5 cells/well, and TNF-α and IFN-α were treated with a compound diluted to 4-fold of a final concentration and totally cultured for 30 minutes. TNF-α was treated with 100 ng/ml lipopolysaccharide (LPS), IFN-α was treated with 500 nM ODN2216 (CpGTLR9 stimulator), and TNF-α and IFN-α were further cultured for 24 hours and 72 hours, respectively. An enzyme-linked immunosorbent assay (ELISA) was performed on TNF-α and IFN-α using an ELISA kit manufactured by BD Biosciences and an ELISA kit manufactured by PBL Assay Science, Inc., respectively. A cell supernatant and a standard drug were put into the ELISA plates and reacted for 2 hours. The plates were washed and a measurement antibody and streptavidin-HRP were sequentially added thereto. After the plates were washed, a TMB substrate was added thereto and reacted in a dark place. The reaction was stopped by adding a stop solution thereto, and the absorbance at 450 nm and 570 nm was measured using an absorber (OPTIMax tunable microplate reader, molecular devices). The experimental results are shown in [Table 2].
# [2] = test system: ISG promoter, THP1-Lucia™ ISG cell line; assay: ISG promoter inhibition, THP1-Lucia ISG cell line; format: cell-based; details: 1 μg/ml Poly(dA:dT)/LyoVec, 24 hours, read-out: ISG, % inhibition degree
# Experimental: (§2) A THP1-Lucia™ NF-κB cell line (Invivogen) was used in an NF-κB inhibition experiment, and a THP1-Lucia™ ISG cell line was used in an ISG inhibition experiment. In the NF-κB inhibition experiment, cells were planted at a density of 1×10^4 cells/well in a 96-well plate, and in the ISG inhibition experiment, cells were planted at a density of 2×10^4 cells/well in a 96-well plate. The cells were treated with a compound diluted to 4-fold of a final concentration, and totally cultured for 30 minutes. NF-κB was treated with 100 ng/ml lipopolysaccharide (LPS), ISG was treated with a stimulator of 1 μg/ml Poly(dA:dT)/LyoVec, and NF-κB and ISG were cultured for 24 hours. 10 μl of a cell supernatant was taken and transferred to a 96-well plate. 50 μl of a Quanti-luc solution was aliquoted using an automatic aliquoter of a measurer (Envision Multilabel Plate Reader, Perkin Elmer, Inc.), and light emission signals were measured.
# [3] = test system: IFN-α secretion, peripheral blood mononuclear cells (PBMCs); assay: Suppression of IFN-α secretion in ODN2216-treated PBMCs (ELISA); format: cell-based; details: PBMC, 500 nM ODN2216, 72 hours, read-out: IFN-α, % inhibition degree
# Experimental: as §1
# [4] = test system: NF-κB promoter, THP1-Lucia™ NF-κB cell line; assay: NF-κB promoter inhibition, THP1-Lucia NF-κB cell line; format: cell-based; details: 100 ng/ml LPS, 24 hours, read-out: NF-κB, % inhibition degree
# Experimental: as §2
# [5] = molecular target: T1, IRAK4 enzyme (Homo sapiens, UniProt Q9NWZ3); assay: IRAK4 enzyme inhibition degree (bead-based kinase assay, peptide substrate BMKC-2, 100 μM ATP); format: biochemical; details: for inhibition at 1 µM: compound 1 μM
# T1 sequence (Q9NWZ3 1-460): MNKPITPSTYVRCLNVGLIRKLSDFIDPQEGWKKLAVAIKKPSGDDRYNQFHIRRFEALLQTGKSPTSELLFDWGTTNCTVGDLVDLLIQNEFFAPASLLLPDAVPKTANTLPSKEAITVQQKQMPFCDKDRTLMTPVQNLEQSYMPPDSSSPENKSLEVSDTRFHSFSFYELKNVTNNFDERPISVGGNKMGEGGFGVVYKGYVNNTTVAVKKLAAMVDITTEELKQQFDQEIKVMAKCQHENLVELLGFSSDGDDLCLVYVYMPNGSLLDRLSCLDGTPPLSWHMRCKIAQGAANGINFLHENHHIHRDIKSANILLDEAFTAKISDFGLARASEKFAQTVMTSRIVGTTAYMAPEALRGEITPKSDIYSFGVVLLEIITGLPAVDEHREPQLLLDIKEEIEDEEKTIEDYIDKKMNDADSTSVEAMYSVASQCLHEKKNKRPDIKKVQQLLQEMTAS
# Experimental: 2.5 μl of a compound diluted to 4-fold of a final concentration was put into a 384-well white plate (low volume). 2.5 μl of 0.4 ng/μl IRAK4 enzyme was added thereto, and the resulting mixture was totally reacted for 10 minutes. 5 μl of a mixed liquid of a 6 μM peptide substrate (BMKC-2) and 100 μM ATP was added thereto, the resulting mixture was reacted at room temperature for 60 minutes, then 2.5 μl of 10 mM EDTA was added thereto, and the resulting mixture was reacted again for 10 minutes. 40 nM anti-phospho Thr antibody was aliquoted to 2.5 μl each, 5 μl of a mixed solution of a 160 μl/ml acceptor bead and a donor bead was added thereto, and then the resulting mixture was reacted at room temperature for 60 minutes. Fluorescence signals were measured using a bead experimental apparatus (Fusion alpha-FP Microplate Reader, Perkin Elmer Inc.).
# From the detected signal, an activity inhibition rate [% inhibition degree=(the average value of a compound−the average value of a negative control)/(the average value of a positive control−the average value of a negative control)×100] was calculated, and is shown in [Table 1]. Further, a % inhibition degree of the compound at each concentration was obtained, and then a 50% inhibition concentration (IC50 value) was analyzed by a non-linear regression analysis.
SMILES,inhibition at 0.1 µM [1],inhibition at 1 µM [1],inhibition at 0.1 µM [2],inhibition at 1 µM [2],inhibition at 0.1 µM [3],inhibition at 1 µM [3],inhibition at 0.1 µM [4],inhibition at 1 µM [4],IC50 [5],inhibition at 1 µM [5]
"c1cc(-c2ccc3c(c2)[nH]c2ncnc(N[C@H]4CC[C@H](N5CCOCC5)CC4)c23)ccn1 [Compound 6caa, N-(trans-4-morpholinocyclohexyl)-7-(pyridin-4-yl)-9H-pyrimido[4,5-b]indole-4-amine]",5%,40%,1%,10%,40%,60%,5%,10%,1360 nM,50%
"N#Cc1cccc(-c2ccc3[nH]c4ncnc(N[C@H]5CC[C@H](N6CCOCC6)CC5)c4c3c2)c1 [Compound 6aak, 3-(4-((trans-4-morpholinocyclohexyl)amino)-9H-pyrimido[4,5-b]indol-6-yl) benzonitrile]",16%,70%,< 1%,30%,53%,98%,< 1%,37%,104 nM,98%
"CN(C)[C@H]1CC[C@H](Nc2ncnc3[nH]c4ccc(-c5cncc(F)c5)cc4c23)CC1 [Compound 6aba, trans-N1-(6-(5-fluoropyridin-3-yl)-9H-pyrimido[4,5-b]indol-4-yl)-N4,N4-dimethylcyclohexane-1,4-diamine]",39.1%,73.3%,33%,83%,3.4%,81.3%,40%,87%,4 nM,83%
Cn1cc(-c2ccc3[nH]c4nccc(N[C@H]5CC[C@H](N6CCOCC6)CC5)c4c3c2)cn1 [Compound 17a],22%,75%,14%,93%,67%,103%,31%,78%,,100%
"Fc1ccc(-c2ccc3[nH]c4ncnc(N[C@H]5CC[C@H](N6CCOCC6)CC5)c4c3c2)cc1 [Compound 6aan, 6-(4-fluorophenyl)-N-(trans-4-morpholinocyclohexyl)-9H-pyrimido[4,5-b]indole-4-amine]",9%,32%,< 1%,6%,28%,71%,< 1%,28%,61 nM,82%
"Cn1cc(-c2ccc3[nH]c4ncnc(Nc5ccc(N6CCNCC6)cc5)c4c3c2)cn1 [Compound 6agaa, 6-(1-methyl-1H-pyrazol-4-yl)-N-(4-(piperazin-1-yl)phenyl)-9H-pyrimido[4,5-b]indole-4-amine]",17%,27%,7%,16%,39%,65%,< 1%,24%,1140 nM,36%
"Fc1ccc(-c2ccc3[nH]c4ncnc(N[C@H]5CC[C@H](N6CCOCC6)CC5)c4c3c2)c(F)c1 [Compound 6aam, 6-(2,4-difluorophenyl)-N-(trans-4-morpholinocyclohexyl)-9H-pyrimido[4,5-b]indole-4-amine]",5%,28%,< 1%,< 1%,9%,55%,< 1%,11%,244 nM,37%
"O=[N+]([O-])c1cccc(-c2ccc3[nH]c4ncnc(N[C@H]5CC[C@H](N6CCOCC6)CC5)c4c3c2)c1 [Compound 6aai, N-(trans-4-morpholinocyclohexyl)-6-(3-nitrophenyl)-9H-pyrimido[4,5-b]indole-4-amine]",13%,62%,9%,41%,32%,87%,6%,36%,67.6 nM,98%
"Oc1cncc(-c2ccc3[nH]c4ncnc(N[C@H]5CC[C@H](N6CCOCC6)CC5)c4c3c2)c1 [Compound 6aae, 5-(4-((trans-4-morpholinocyclohexyl)amino)-9H-pyrimido[4,5-b]indol-6-yl)pyridine-3-ol]",12%,53%,4%,29%,48%,92%,< 1%,40%,2 nM,100%
"CCOC(=O)c1ccc2[nH]c3ncnc(N[C@H]4CC[C@H](N5CCOCC5)CC4)c3c2c1 [Compound 5ba, ethyl 4-((trans-4-morpholinocyclohexyl)amino)-9H-pyrimido[4,5-b]indole-6-carboxylate]",31.7%,41.3%,37%,78%,27%,73.9%,48%,89%,29 nM,83%
"Cn1cc(-c2ccc3[nH]c4ncnc(N[C@H]5CC[C@H](N6CCOCC6)CC5)c4c3c2)cn1 [Compound 6aaa, 6-(1-methyl-1H-pyrazol-4-yl)-N-(trans-4-morpholinocyclohexyl)-9H-pyrimido[4,5-b]indole-4-amine]",10.5%,42%,17%,55%,20%,21%,23%,71%,28 nM,100%

# — patent US12378250B2, “Tricyclic compound as IRAK4 inhibitor” (KOREA RESEARCH INSTITUTE OF CHEMICAL TECHNOLOGY, priority 2018, dated 2025)
